Here are results for 24 compounds from US9957251B2 (Takeda Pharmaceutical Company Limited, priority 2014, dated 2018).

Test [1] deals with human multiple myeloma RPMI8226 cells. The test can be described thus: Inhibitory activity against human multiple myeloma RPMI8226 cell growth (CellTiter-Glo). Format: cell-based. The settings on record: Homo sapiens, RPMI-8226, 192 h, 1 μM of the test compound, cultured for 8 days; read-out: Percent inhibition of RPMI8226 cell growth (%). The method in brief:
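RPMI8226 cells (300/well) cultured 1 day at 37 °C, 5% CO2, then given compound at 1 μM for 8 days. ATP luminescence (CellTiter-Glo) read; percent inhibition relative to 0.1% DMSO wells.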
A general note: Cellular ATP, detected with luciferase, serves as a proxy for viable cell number.

The target of test [2] is T1, CDK8/CycC (Homo sapiens, UniProt P49336).
T1 construct: purchased Carna Biosciences
T1 sequence (P49336 whole entry): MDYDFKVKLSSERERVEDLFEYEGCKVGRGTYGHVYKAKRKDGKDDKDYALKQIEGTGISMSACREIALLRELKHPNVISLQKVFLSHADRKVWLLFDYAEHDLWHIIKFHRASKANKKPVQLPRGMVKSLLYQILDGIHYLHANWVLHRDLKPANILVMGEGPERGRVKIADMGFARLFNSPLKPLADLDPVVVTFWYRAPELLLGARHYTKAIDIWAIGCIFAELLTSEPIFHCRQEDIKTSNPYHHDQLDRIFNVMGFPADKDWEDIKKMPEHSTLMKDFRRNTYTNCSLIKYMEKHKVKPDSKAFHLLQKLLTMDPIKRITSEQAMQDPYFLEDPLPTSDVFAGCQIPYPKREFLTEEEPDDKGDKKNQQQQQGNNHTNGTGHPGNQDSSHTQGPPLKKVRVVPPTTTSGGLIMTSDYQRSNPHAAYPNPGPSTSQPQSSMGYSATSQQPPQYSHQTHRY
T1 sequence (P24863 whole entry partner): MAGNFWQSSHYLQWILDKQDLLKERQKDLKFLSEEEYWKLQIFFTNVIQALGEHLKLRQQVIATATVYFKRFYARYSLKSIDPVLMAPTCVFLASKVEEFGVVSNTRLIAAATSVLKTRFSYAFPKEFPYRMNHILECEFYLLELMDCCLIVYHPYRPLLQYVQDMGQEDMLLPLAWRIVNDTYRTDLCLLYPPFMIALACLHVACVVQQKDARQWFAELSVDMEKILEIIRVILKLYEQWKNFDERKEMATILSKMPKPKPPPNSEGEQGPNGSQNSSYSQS
The test can be described thus: CDK8 inhibitory activity (TR-FRET, Kinase Tracer-236 displacement). The settings on record: 1 μM of the test compound; read-out: Percent inhibition of CDK8 activity (%). The class given is binding. The method in brief:
(§1)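 Binding assay measuring displacement of Kinase Tracer-236 (60 nM in the added mix) by compound, using Eu-cryptate anti-GST antibody with CDK8/CycC (84 ng/mL) or CDC2L6/CycC (87 ng/mL) solutions. After 1 h at room temperature, TR-FRET read at 615 and 665 nm (excitation 320 nm).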
(TR-FRET usually uses a lanthanide donor and a delayed reading to cut background.)

For test [3], the target named is T2, CDK19 (CDC2L6/CycC) (Homo sapiens, UniProt Q9BWU1).
T2 construct: purchased Carna Biosciences
T2 sequence (Q9BWU1 whole entry): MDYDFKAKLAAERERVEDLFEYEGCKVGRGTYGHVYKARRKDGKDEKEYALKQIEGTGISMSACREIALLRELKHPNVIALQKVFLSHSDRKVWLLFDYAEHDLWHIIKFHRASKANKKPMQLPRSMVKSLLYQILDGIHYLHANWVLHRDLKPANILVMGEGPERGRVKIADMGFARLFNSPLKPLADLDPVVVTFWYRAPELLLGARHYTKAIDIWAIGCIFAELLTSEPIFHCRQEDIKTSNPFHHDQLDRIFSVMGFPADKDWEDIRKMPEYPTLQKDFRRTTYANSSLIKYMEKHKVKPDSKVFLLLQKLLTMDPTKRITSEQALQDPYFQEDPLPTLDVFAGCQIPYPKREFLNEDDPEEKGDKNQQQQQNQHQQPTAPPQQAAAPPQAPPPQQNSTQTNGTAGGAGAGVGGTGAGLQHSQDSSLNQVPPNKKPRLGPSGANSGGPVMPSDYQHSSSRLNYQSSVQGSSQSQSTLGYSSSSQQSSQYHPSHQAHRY
T2 sequence (P24863 whole entry partner): as the sequence (P24863 whole entry partner) above
As to the kind of experiment: CDK19 inhibitory activity (TR-FRET, Kinase Tracer-236 displacement). The class given is binding. The settings on record: 1 μM of the test compound; read-out: Percent inhibition of CDK19 activity (%). The method in brief: as §1

In the case of `Cn1cc(-c2ccncc2/C=C/C(=O)Nc2ccc(Cn3cccn3)cc2)cn1` [Example 274, (2E)-3-(4-(1-methyl-1H-pyrazol-4-yl)pyridin-3-yl)-N-(4-(1H-pyrazol-1-ylmethyl)phenyl)acrylamide], the inhibition – broadly, the drop in the measured response relative to a control, in per cent – at 1 µM worked out at 53% in test [1], 102% in test [2] and 97% in test [3].

In the case of `Cn1cnc2ccc(-c3ccncc3/C=C/C(=O)Nc3ccc(CN4CCOCC4)cc3)cc21` [Example 234, (2E)-3-(4-(1-methyl-1H-benzimidazol-6-yl)pyridin-3-yl)-N-(4-(morpholin-4-ylmethyl)phenyl)acrylamide], the inhibition at 1 µM amounted to 65% in test [1], 102% in test [2] and 102% in test [3].

`Cn1cc(-c2ccncc2/C=C/C(=O)Nc2ccc(CN3CCOCC3)c(O)c2)cn1` [Example 148, (2E)-N-(3-Hydroxy-4-(morpholin-4-ylmethyl)phenyl)-3-(4-(1-methyl-1H-pyrazol-4-yl)pyridin-3-yl)acrylamide]: the inhibition at 1 µM in test [1] came to 54%; in test [2], 97%; in test [3] it was 99%.

As for `O=C(/C=C/c1cnccc1-c1cccs1)Nc1ccc(CCc2nnco2)cc1` [Example 1, (2E)-N-(4-(2-(1,3,4-Oxadiazol-2-yl)ethyl)phenyl)-3-(4-(2-thienyl)pyridin-3-yl)acrylamide], the results for the inhibition at 1 µM in test [1], in test [2] and in test [3] were 59%, 101% and 100%, respectively.

Turning to `O=C(/C=C/c1cnccc1-c1ccc2[nH]ncc2c1)Nc1ccc(CN2CCOCC2)cc1` [Example 242, (2E)-3-(4-(1H-indazol-5-yl)pyridin-3-yl)-N-(4-(morpholin-4-ylmethyl)phenyl)acrylamide], the inhibition at 1 µM in test [1] was determined as 55%; in test [2] it was 96%; in test [3] it was 97%.

With `O=C(/C=C/c1cnccc1-c1cnn(C2CC2)c1)Nc1ccc2c(c1)CN(C(=O)C(F)(F)F)CC2` [Example 248, (2E)-3-(4-(1-Cyclopropyl-1H-pyrazol-4-yl)pyridin-3-yl)-N-(2-(trifluoroacetyl)-1,2,3,4-tetrahydroisoquinolin-7-yl)acrylamide], the inhibition at 1 µM in test [1] is 57%; in test [2], 98%; in test [3] it was 98%.

Take `Cn1cc(-c2ccncc2/C=C/C(=O)Nc2ccc(Oc3ccncc3)cc2)cn1` [Example 137, (2E)-3-(4-(1-methyl-1H-pyrazol-4-yl)pyridin-3-yl)-N-(4-(pyridin-4-yloxy)phenyl)acrylamide]: the inhibition at 1 µM in test [1] amounted to 54%; in test [2], 95%; in test [3] it was 96%.

In the case of `CC(=O)n1cc(-c2ccncc2/C=C/C(=O)Nc2ccc(CN3CCOCC3)cc2)cn1` [Example 218, (2E)-3-(4-(1-Acetyl-1H-pyrazol-4-yl)pyridin-3-yl)-N-(4-(morpholin-4-ylmethyl)phenyl)acrylamide], the inhibition at 1 µM amounted to 65% in test [1], 96% in test [2] and 101% in test [3].

With `CC1COCCN1Cc1ccc(NC(=O)/C=C/c2cnccc2-c2cnn(C)c2)cc1` (stereo not drawn) [Example 54, (2E)-N-(4-((3-methylmorpholin-4-yl)methyl)phenyl)-3-(4-(1-methyl-1H-pyrazol-4-yl)pyridin-3-yl)acrylamide], the inhibition at 1 µM in test [1] worked out at 55%; in test [2], 100%; in test [3], 95%.

As to `Cn1cc(-c2ccncc2/C=C/C(=O)Nc2ccc(CC#N)cc2)cn1` [Example 284, (2E)-N-(4-(cyanomethyl)phenyl)-3-(4-(1-methyl-1H-pyrazol-4-yl)pyridin-3-yl)acrylamide], the inhibition at 1 µM in test [1] stood at 57%; in test [2], 92%; in test [3] it was 95%.

`Cn1cc(-c2c(F)cncc2/C=C/C(=O)Nc2ccc(CN3CCOCC3)cc2)cn1` [Example 238, (2E)-3-(5-fluoro-4-(1-methyl-1H-pyrazol-4-yl)pyridin-3-yl)-N-(4-(morpholin-4-ylmethyl)phenyl)acrylamide]: the inhibition at 1 µM in test [1] was found to be 67%; in test [2] it was 100%; in test [3], 100%.

`Cn1cnc2ccc(-c3c(F)cncc3/C=C/C(=O)Nc3ccc(CN4CC(F)(F)C4)cc3)cc21` [Example 358, (2E)-N-(4-((3,3-Difluoroazetidin-1-yl)methyl)phenyl)-3-(5-fluoro-4-(1-methyl-1H-benzimidazol-6-yl)pyridin-3-yl)acrylamide]: the inhibition at 1 µM in test [1] amounted to 67%; in test [2], 87%; in test [3], 101%.

For the compound `O=C(/C=C/c1cnccc1-c1cnn(C2CC2)c1)Nc1ccc(COCC(F)(F)F)cc1F` [Example 330, (2E)-3-(4-(1-Cyclopropyl-1H-pyrazol-4-yl)pyridin-3-yl)-N-(2-fluoro-4-((2,2,2-trifluoroethoxy)methyl)phenyl)acrylamide], the values for the inhibition at 1 µM in test [1], in test [2] and in test [3] were 53%, 101% and 96%, respectively.

In the case of `Cc1nn(C)cc1-c1ccncc1/C=C/C(=O)Nc1ccc(CCc2nnco2)cc1` [Example 19, (2E)-3-(4-(1,3-dimethyl-1H-pyrazol-4-yl)pyridin-3-yl)-N-(4-(2-(1,3,4-oxadiazol-2-yl)ethyl)phenyl)acrylamide], the results for the inhibition at 1 µM in test [1], in test [2] and in test [3] were 54%, 100% and 98%, respectively.

Consider `Cn1cc(-c2ccncc2/C=C/C(=O)Nc2ccc3c(c2)OCC3)cn1` [Example 116, (2E)-N-(2,3-dihydro-1-benzofuran-6-yl)-3-(4-(1-methyl-1H-pyrazol-4-yl)pyridin-3-yl)acrylamide], for which the inhibition at 1 µM in test [1] was 55%; in test [2], 100%; in test [3], 94%.

With `CC(C)(F)Cc1ccc(NC(=O)/C=C/c2cnccc2-c2cnn(C3CC3)c2)cc1` [Example 293, (2E)-3-(4-(1-cyclopropyl-1H-pyrazol-4-yl)pyridin-3-yl)-N-(4-(2-fluoro-2-methylpropyl)phenyl)acrylamide], the inhibition at 1 µM in test [1] is 61%; in test [2], 102%; in test [3], 95%.

Consider `Cn1cc(-c2ccncc2/C=C/C(=O)Nc2ccc(N3CCOCC3)c(Cl)c2)cn1` [Example 159, (2E)-N-(3-chloro-4-(morpholin-4-yl)phenyl)-3-(4-(1-methyl-1H-pyrazol-4-yl)pyridin-3-yl)acrylamide], for which the inhibition at 1 µM in test [1] is 60%; in test [2], 102%; in test [3], 100%.

Turning to `Cn1cc(-c2ccncc2/C=C/C(=O)Nc2ccc(CN3CCOC(C)(C)C3)cc2)cn1` [Example 37, (2E)-N-(4-((2,2-Dimethylmorpholin-4-yl)methyl)phenyl)-3-(4-(1-methyl-1H-pyrazol-4-yl)pyridin-3-yl)acrylamide], the inhibition at 1 µM in test [1] amounted to 61%; in test [2] it was 97%; in test [3] it was 101%.

Turning to `Cn1cc(-c2ccncc2/C=C/C(=O)Nc2ccc(CN3CCOCC3)c(Cl)c2)cn1` [Example 42, (2E)-N-(3-Chloro-4-(morpholin-4-ylmethyl)phenyl)-3-(4-(1-methyl-1H-pyrazol-4-yl)pyridin-3-yl)acrylamide], the inhibition at 1 µM was 53% in test [1], 99% in test [2] and 99% in test [3].

As to `Cn1cc(-c2c(F)cncc2/C=C/C(=O)Nc2ccc(CN3CCOCC3)cc2F)cn1` [Example 260, (2E)-3-(5-Fluoro-4-(1-methyl-1H-pyrazol-4-yl)pyridin-3-yl)-N-(2-fluoro-4-(morpholin-4-ylmethyl)phenyl)acrylamide], the inhibition at 1 µM in test [1] is 53%; in test [2], 98%; in test [3], 99%.

With `C[C@@H]1CN(Cc2ccc(NC(=O)/C=C/c3cnccc3-c3cnn(C)c3)cc2)C[C@H](C)O1` [Example 53, (2E)-N-(4-(((2R,65)-2,6-dimethylmorpholin-4-yl)methyl)phenyl)-3-(4-(1-methyl-1H-pyrazol-4-yl)pyridin-3-yl)acrylamide], the inhibition at 1 µM in test [1] was determined as 58%; in test [2], 101%; in test [3], 97%.

Take `Cn1cc(-c2ccncc2/C=C/C(=O)Nc2cccc(-c3cccnc3)c2)cn1` [Example 182, (2E)-3-(4-(1-methyl-1H-pyrazol-4-yl)pyridin-3-yl)-N-(3-(pyridin-3-yl)phenyl)acrylamide]: the results for the inhibition at 1 µM in test [1], in test [2] and in test [3] were 58%, 84% and 78%, respectively.

Regarding `COC(C)c1ccc(NC(=O)/C=C/c2cnccc2-c2cnn(C3CC3)c2)cc1` (stereo not drawn) [Example 271, (2E)-3-(4-(1-cyclopropyl-1H-pyrazol-4-yl)pyridin-3-yl)-N-(4-(1-methoxyethyl)phenyl) acrylamide], the results for the inhibition at 1 µM in test [1], in test [2] and in test [3] were 62%, 102% and 93%, respectively.

Take `Cn1cc(-c2ccncc2/C=C/C(=O)Nc2ccc(CN3CCOCC3)c(C#N)c2)cn1` [Example 150, (2E)-N-(3-Cyano-4-(morpholin-4-ylmethyl)phenyl)-3-(4-(1-methyl-1H-pyrazol-4-yl)pyridin-3-yl)acrylamide]: the inhibition at 1 µM in test [1] is 54%; in test [2] it was 100%; in test [3], 99%.
